Experiments:
[1] = test system: SIRT4; test: Quantitative PCR of SIRT4 in organs of aging rats; format: in vivo; settings: 12-month male SD rats, 100 nmol per rat intraperitoneally, qd, 2 weeks, vs control group
Description: (§1) Activation of the β3 receptor could increase the expression of SIRT1, SIRT3 and SIRT4 in heart, liver, brain, kidney and aorta of aging rats. Twenty 12-month male SD rats were randomly divided into 2 groups. The rats were intraperitoneally injected with BRL37344 at 100 nmol for each rat, qd, 2 weeks. The rats in control group were administrated with solvents of same volume. The rats were sacrificed to obtain heart, liver, brain, kidney and aorta, followed by total RNA extraction. The RNA was then reversely transcribed, followed by quantitative PCR to detect gene expression of SIRT1, SIRT3 and SIRT4. Compared to the control group, BRL37344 increases the expression of SIRT1, SIRT3 and SIRT4 in heart, liver, brain, kidney and aorta.

[2] = test system: MCF7 cells; test: H2DCFDA flow cytometry of reactive oxygen species; format: cell-based; settings: 10^−7 M, fluorescence probe H2DCFDA
Protocol: (§2) Activation of the β3 receptor could increase mitochondrial content of MCF7 cells. BRL37344 and SR59230A were used to treat MCF7 cells and naked tumor-bearing rats each at 10^−7 M. The amount of mitochondrion was determined by MitoTracker probes. Mitochondrial membrane potential was determinded by JC1. The ROS content of the cells was determined by fluorescence probe H2DCFDA. ATP level was determined by ATP kit. MDC staining was determined by flowcytometer. GFP-LC3 eukaryotic expression vectors were used for transfection. […] BRL37344 protected mitochondrial membrane potential (FIG. 10), reduced intracellular ROS content (FIG. 11), and increased intracellular ATP level (FIG. 12).

[3] = test system: p53; test: Western blot of p53 in heart tissue of myocardial infarction rats; format: in vivo; settings: heart failure rat, 1 mg/kg/day intraperitoneally, 4 weeks
Protocol: (§3) In rat myocardial infarction models, activation of the β-3 receptor could increase level of SIRT1 in cardiomyocyte, inhibit expression of p53, improve the cardiac function and achieve anti-apoptosis effect. The myocardial infarction model was created by ligation of anterior descending branch of rat left coronary artery. BRL37344 was intraperitoneally injected at 1 mg/kg/day, and heart B-ultrasonography was performed after 4 weeks. Heart tissue was determined for apoptosis (tunel method) and expression levels of SIRT1 and p53 (western blot). The ratio of left ventricular weight to body weight (LVW/BW) is determined. It can be seen from the results shown in FIGS. 3 to 5, that BRL37344 decreases p53 expression, cardiac cell apoptosis, and value of LVW/BW of heart failure rat, increases SIRT1 expression, alleviate cardiac hypertrophy and improve cardiac function.

[4] = test system: mTOR/Rictor complex; test: Western blot of mTOR/Rictor complex; format: cell-based; settings: rat cardiomyocyte, 10^−7 M, 24 h, compared to control shRNA
Protocol: Activation of the β3 receptor could increase mTOR/Rictor complex in […]. shRNA of β3 adrenergic receptor, control shRNA, BRL37344 and SR59230A was used to treat rat cardiomyocyte each at 10^−7 M. After 24 h, total protein was extracted and subjected to western blot to determine the expression amount of mTOR and Rictor proteins.

[5] = test system: naked tumor-bearing rats; test: ATP content by ATP kit in tumor tissue of naked tumor-bearing rats; format: in vivo, rat; settings: 10^−7 M
Protocol: as §2

[6] = test system: MCF7 cells; test: JC-1 flow cytometry of mitochondrial membrane potential; format: cell-based; settings: 10^−7 M
Protocol: as §2

[7] = test system: SIRT1; test: Quantitative PCR of SIRT1 in organs of aging rats; format: in vivo; settings: 12-month male SD rats, 100 nmol per rat intraperitoneally, qd, 2 weeks, vs control group
Description: as §1

[8] = test system: cardiomyocyte; test: Lipofuscin in cardiomyocyte under confocal microscope; format: cell-based, rat; settings: 10^−7 M, 10 days
Description: Beta-3 receptor reduced amount of lipofuscin in cardiomyocyte. BRL37344 and SR59230A were used to treat cardiomyocyte each at 10^−7 M. After 10 days, cells were observed under confocal microscope for lipofuscin.

[9] = test system: adipose-derived stem cells of rats; test: β-Galactosidase staining of adipose-derived stem cells; format: cell-based, rat; settings: 10^−7 M, 24 h, compared with SR59230A
Protocol: Blockage of the β-3 receptor could increase level of β-galactosidase in adipose-derived stem cells and promote stem cell aging. BRL37344 and SR59230A were used to treat adipose-derived stem cells of rats each at 10^−7 M. After 24 h, cells were fixed using paraformaldehyde, and stained and photographed according to the specification of β-Galactosidase Staining Kit. BRL37344 decreases the level of β-galactosidase in adipose-derived stem cells compared with SR59230A, indicating agonisting of adrenergic β3 receptors of adipose-derived stem cells achieves anti-aging effect.

[10] = test system: mTOR/α-Tubulin; test: mTOR/α-Tubulin double staining in cardiac fibroblast; format: cell-based, rat; settings: cardiac fibroblast of rats, 10^−7 M, confocal microscope
Description: (§4) Beta-3 receptor promoted binding of mTORC2 to α-Tubulin in spindle apparatus. BRL37344 was used to treat cardiac fibroblast of rats at 10^−7 M. The cells were undergone mTOR/α-Tubulin immunohistochemical double staining and Rictor/α-Tubulin immunofluorescence double staining, and observed under confocal microscope.

[11] = test system: Rictor/α-Tubulin; test: Rictor/α-Tubulin immunofluorescence double staining in cardiac fibroblast; format: cell-based, rat; settings: cardiac fibroblast of rats, 10^−7 M, confocal microscope
Description: as §4

[12] = test system: rat myocardial infarction models; test: Rat myocardial infarction (heart failure) model: B-ultrasonography, tunel apoptosis, LVW/BW; format: in vivo; settings: 1 mg/kg/day intraperitoneally, 4 weeks
Protocol: as §3

[13] = test system: SIRT3; test: Quantitative PCR of SIRT3 in organs of aging rats; format: in vivo; settings: 12-month male SD rats, 100 nmol per rat intraperitoneally, qd, 2 weeks, vs control group
Description: as §1

[14] = test system: SIRT1; test: Western blot of SIRT1 in heart tissue of myocardial infarction rats; format: in vivo; settings: heart failure rat, 1 mg/kg/day intraperitoneally, 4 weeks
Protocol: as §3

[15] = test system: SIRT1; test: Western blot of SIRT1 in MCF-7 cells treated with SR59230A; format: cell-based; settings: 24 h, with increasing SR59230A concentration, western blot vs GAPDH
Protocol: (§5) MCF-7 cells were treated with SR59230A at different concentrations. After 24 h, the cells were lysed to extract total protein. The protein concentration was determined by BCA method. 10 μg of the protein was used to perform 10% SDS PAGE, and then transferred to a PVDF membrane. The membrane was blocked for 1 h with TBST (10 mmol/L Tris HCl, pH 7.5, 150 mmol/L NaCl, 0.1% Tween 20) containing 4% fat-free milk, and incubated overnight with p53 antibody (1:1000) and SIRT1 antibody (1:1000) at 4° C. The membrane was further incubated with secondary antibodies for 1 h after washing, followed by ECL color development. The same procedure is repeated 3 times. The gray values of protein bands were obtained through Fluorchem 8900 software and the ratio of target band to reference band (GAPDH) was calculated. Results are shown in FIGS. 1 and 2, wherein the expression level of p53 is increased as the increase of SR59230A concentration, while SIRT1 is decreased.

[16] = test system: MCF7 cells; test: MDC staining by flowcytometer; format: cell-based; settings: 10^−7 M
Protocol: as §2

[17] = test system: MCF7 cells; test: MitoTracker/LC3B immunofluorescence double staining (mitochondrion content, mitophagy); format: cell-based; settings: 10^−7 M
Protocol: as §2

[18] = test system: p53; test: Western blot of p53 in MCF-7 cells treated with SR59230A; format: cell-based; settings: 24 h, with increasing SR59230A concentration, western blot vs GAPDH
Protocol: as §5

[19] = test system: MCF7 cells; test: GFP-LC3 eukaryotic expression vector transfection; format: cell-based; settings: 10^−7 M, GFP-LC3 transfected cells
Protocol: as §2

Q: How did the “expression of SIRT4 in heart, liver, brain, kidney and aorta” value [1] turn out when `C[C@H](Cc1ccc(OCC(=O)O)cc1)NC[C@H](O)c1cccc(Cl)c1` [BRL37344] was run?
A: Its value is “increases”.

Q: What about the “intracellular ROS content” value [2] of the same compound?
A: The value was “reduced”.

Q: And the “p53 expression in rat myocardia” value [3]?
A: The value was “decreases”.

Q: What about the mTOR/Rictor complex [4] of the same compound?
A: Its mTOR/Rictor complex is “increases”.

Q: And the “intracellular ATP level” value [5]?
A: The value was “increased”.

Q: And the mitochondrial membrane potential [6]?
A: The mitochondrial membrane potential was “protected”.

Q: And the “expression of SIRT1 in heart, liver, brain, kidney and aorta” value [7]?
A: The value was “increases”.

Q: And the lipofuscin in cardiomyocyte [8]?
A: The lipofuscin in cardiomyocyte was “significantly reduced”.

Q: What about the “level of β-galactosidase in adipose-derived stem cells” value [9] of the same compound?
A: The value was “decreases”.

Q: And the “binding of mTOR to α-Tubulin in spindle apparatus” value [10]?
A: Its value is “promoted”.

Q: And the “binding of Rictor to α-Tubulin” value [11]?
A: The value was “promoted”.

Q: And the cardiac hypertrophy [12]?
A: The cardiac hypertrophy was “alleviate”.

Q: And the “ratio of left ventricular weight to body weight (LVW/BW)” value [12]?
A: The value was “decreases”.

Q: What about the cardiac function ([12]; heart B-ultrasonography, 1 mg/kg/day) of the same compound?
A: Its cardiac function is “improve”.

Q: What about the cardiac cell apoptosis ([12]; tunel method, 1 mg/kg/day) of the same compound?
A: Its cardiac cell apoptosis is “decreases”.

Q: And the “expression of SIRT3 in heart, liver, brain, kidney and aorta” value [13]?
A: Its value is “increases”.

Q: What about the “SIRT1 expression in rat myocardia” value [14] of the same compound?
A: The value was “increases”.

Q: Which results are given for `CCc1ccccc1OC[C@@H](O)CN[C@H]1CCCc2ccccc21` [SR59230A]?
A: expression level of SIRT1 [15]: decreased; MDC staining [16]: increased; content of mitochondrion ([17]; MitoTracker probes): decreases; mitophagy ([17]; MitoTracker/LC3B double staining): enhance; mitochondrial membrane potential [6]: damaged; expression level of p53 [18]: increased; GFP-LC3 fluorescent spots [19]: promoted to form many bright and green fluorescent spots
